Reference: patent US8586579B2, “Anellated pyridine compounds” (Hoffmann-La Roche Inc., priority 2010, dated 2013)
Read-outs that look alike come from different tables or passages of the source.

How the values were obtained:
human 5-HT2A receptor = human 5-HT2A receptor (Homo sapiens (Human), UniProt P28223); experiment: Radioligand binding assay, [3H]-ketanserin, human 5-HT2A receptor
Procedure: (§1) HEK293 EBNA cells were transiently transfected with expression plasmids encoding for the human D2 or D3 or for the human 5-HT2A receptor, respectively. The cells were harvested 48 h post-transfection, washed three times with cold PBS and stored at −80° C. prior to use. The pellet was suspended in cold 50 mM Tris-HCl buffer comprising 10 mM EDTA (pH 7.4) and was homogenized with a Polytron (Kinematica AG, Basel, Switzerland) for 20-30 sec at 12.000 rpm. After centrifugation at 48.000×g for 30 min at 4° C., the pellet was resuspended in cold 10 mM Tris-HCl buffer comprising 0.1 mM EDTA (pH 7.4), homogenized, and centrifuged as above. This pellet was further resuspended in a smaller volume of ice cold 10 mM Tris-HCl buffer comprising 0.1 mM EDTA (pH 7.4) and homogenized with a Polytron for 20-30 sec at 12.000 rpm. The protein content of this homogenate was determined with the Bio-Rad (Bradford) Protein Assay (Biorad Laboratories GmbH, München, Germany) according to the instructions of the manufacturer using gamma globulin as the standard. This homogenate was stored at −80° C. in aliquots and thawed immediately prior to use.
(§2) Aliquots of membrane preparations were thawed at RT, resuspended in assay buffer (D2, D3: 50 mM Tris-HCl, 120 mM NaCl, 5 mM MgCl2, 1 mM EDTA, 5 mM KCl, 1.5 mM CaCl2, pH=7.4; 5-HT2A: 50 mM Tris-HCl, 10 mM MgCl2, 1 mM EGTA, pH=7.4), homogenized with a Polytron for 20-30 sec at 12.000 rpm and adjusted to a final concentration of approximately 7.5 μg protein/well (D2, D3) and 15 μg protein/well (5-HT2A), respectively.
(§3) The binding affinity (Ki) of the compounds was determined using radioligand binding. Membranes were incubated in a total volume of 200 μl with a fixed concentration of radioligand (final concentration approximately 0.7 nM [^3H]-spiperone for D2, 0.5 nM [^3H]-spiperone for D3, and 1.1 nM [^3H]-ketanserin for 5-HT2A) and ten concentrations of test compound in ranging between 10 μM-0.1 nM for 1 h at RT. […] The nonspecific binding was determined with equally composed reaction mixtures in the presence of 10 μM unlabelled spiperone. Per well 45 μl of Microscint 40 (Perkin Elmer, Schwerzenbach, Switzerland) was added, plates for sealed, shaken for 20 min and counted for 3 min on a Topcount Microplate Scintillation Counter (Can berra Packard SA, Zürich, Switzerland) with quenching correction.
(§4) The CPM value for each duplicate of a concentration of competing compound was averaged (y1), then the % specific binding was calculated according to the equation (((y1−non-specific)/(total binding−non-specific))×100). Graphs were plotted with the % specific binding using XLfit, a curve fitting program that iteratively plots the data using Levenberg-Marquardt algorithm. The single site competition analysis equation used was y=A+((B−A)/(1+((x/C)D))), where y is the % specific binding, A is the minimum y, B is the maximum y, C is the IC50, x is the log 10 of the concentration of the competing compound and D is the slope of the curve (the Hill Coefficient). […] The affinity constant (K) was calculated using the Cheng-Prusoff equation Ki=(IC50/1+([L]/Kd), where [L] is the concentration of radioligand and Kd is the dissociation constant of the radioligand at the receptor as determined by the saturation isotherm.

human D2 receptor = human D2 receptor (Homo sapiens (Human), UniProt P14416); experiment: Radioligand binding assay, [3H]-spiperone, human D2 receptor; settings: membranes of HEK293 EBNA cells expressing human D2; 0.7 nM [3H]-spiperone
Procedure: as §1, §2, §3
as §4, with “algorithm.” for “algorithm. The single site competition analysis equation used was y=A+((B−A)/(1+((x/C)D))), where y is the % specific binding, A is the minimum y, B is the maximum y, C is the IC50, x is the log 10 of the concentration of the competing compound and D is the slope of the curve (the Hill Coefficient).”

human D3 receptor = human D3 receptor (Homo sapiens (Human), UniProt P35462); experiment: Radioligand binding assay, [3H]-spiperone, human D3 receptor; settings: membranes of HEK293 EBNA cells expressing human D3; 0.5 nM [3H]-spiperone
Procedure: as §1, §2, §3, §4

[1] = membranes of HEK293 EBNA cells expressing human 5-HT2A, 1.1 nM [3H]-ketanserin

human 5-HT2A receptor, sequence (P28223 whole entry): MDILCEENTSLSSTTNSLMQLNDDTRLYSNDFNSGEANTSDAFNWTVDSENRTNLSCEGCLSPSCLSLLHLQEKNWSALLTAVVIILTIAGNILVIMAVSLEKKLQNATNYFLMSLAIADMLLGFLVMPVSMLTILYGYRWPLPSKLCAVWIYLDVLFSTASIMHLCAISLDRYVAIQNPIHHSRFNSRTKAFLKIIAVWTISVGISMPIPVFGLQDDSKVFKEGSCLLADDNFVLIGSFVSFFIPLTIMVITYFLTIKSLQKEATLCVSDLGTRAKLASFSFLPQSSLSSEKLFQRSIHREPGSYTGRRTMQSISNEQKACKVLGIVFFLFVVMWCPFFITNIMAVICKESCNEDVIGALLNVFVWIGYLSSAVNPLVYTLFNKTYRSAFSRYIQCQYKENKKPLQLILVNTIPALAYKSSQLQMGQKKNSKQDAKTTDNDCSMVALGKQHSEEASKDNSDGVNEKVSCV
human D3 receptor, sequence (P35462 whole entry): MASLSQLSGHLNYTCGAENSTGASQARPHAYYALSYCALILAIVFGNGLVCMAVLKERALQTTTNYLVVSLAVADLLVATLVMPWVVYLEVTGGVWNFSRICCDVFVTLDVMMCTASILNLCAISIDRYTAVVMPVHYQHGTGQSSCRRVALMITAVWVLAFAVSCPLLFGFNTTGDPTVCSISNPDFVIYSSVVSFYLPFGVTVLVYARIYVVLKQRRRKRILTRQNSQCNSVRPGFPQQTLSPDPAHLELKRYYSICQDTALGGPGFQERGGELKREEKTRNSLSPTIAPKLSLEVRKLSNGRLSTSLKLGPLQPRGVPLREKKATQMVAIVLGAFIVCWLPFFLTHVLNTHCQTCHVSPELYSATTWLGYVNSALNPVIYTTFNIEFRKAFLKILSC
human D2 receptor, sequence (P14416 whole entry): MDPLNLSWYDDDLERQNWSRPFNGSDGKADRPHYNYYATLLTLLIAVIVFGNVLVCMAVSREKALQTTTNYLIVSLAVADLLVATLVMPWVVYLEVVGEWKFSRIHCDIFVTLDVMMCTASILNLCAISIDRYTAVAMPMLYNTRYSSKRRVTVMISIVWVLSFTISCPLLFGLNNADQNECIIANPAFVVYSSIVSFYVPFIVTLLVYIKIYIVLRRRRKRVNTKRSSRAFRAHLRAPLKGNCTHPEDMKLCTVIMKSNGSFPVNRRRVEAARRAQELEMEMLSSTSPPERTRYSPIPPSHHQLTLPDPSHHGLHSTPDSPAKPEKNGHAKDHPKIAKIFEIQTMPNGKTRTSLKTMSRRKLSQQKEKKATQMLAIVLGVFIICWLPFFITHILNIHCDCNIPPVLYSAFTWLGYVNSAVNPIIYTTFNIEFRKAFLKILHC

SMILES | Ki (human 5-HT2A receptor; [1]) [nM] | Ki (human D2 receptor) [nM] | Ki (human D3 receptor) [nM] | Ki (human 5-HT2A receptor) [nM]
CO[C@@H]1CC[C@@H](CC(=O)N[C@H]2CC[C@H](CCN3CCN(c4nccc5occc45)CC3)CC2)C1 (racemic) [Example 2, N-{trans-4-[2-(4-Furo[3,2-c]pyridin-4-yl-piperazin-1-yl)-ethyl]-cyclohexyl}-2-(trans-3-methoxy-cyclopentyl)-acetamide] | 6.4 | 802 | 28.8 | 
CO[C@@H]1CC[C@@H](CC(=O)N[C@H]2CC[C@H](CCN3CCN(c4nccc5sccc45)CC3)CC2)C1 (racemic) [Example 21, 2-(trans-3-Methoxy-cyclopentyl)-N-{trans-4-[2-(4-thieno[3,2-c]pyridin-4-yl-piperazin-1-yl)-ethyl]-cyclohexyl}-acetamide] | 3.7 | 271 | 3.6 | 
CC(=O)N[C@H]1CC[C@H](CCN2CCN(c3nccc4occc34)CC2)CC1 [Example 1, N-{trans-4-[2-(4-Furo[3,2-c]pyridin-4-yl-piperazin-1-yl)-ethyl]-cyclohexyl}-acetamide] |  | 486 | 18.3 | 9.1
O=C(C[C@H]1CC[C@H](O)CC1)N[C@H]1CC[C@H](CCN2CCN(c3nccc4occc34)CC2)CC1 [Example 3, N-{trans-4-[2-(4-Furo[3,2-c]pyridin-4-yl-piperazin-1-yl)-ethyl]-cyclohexyl}-2-(trans-4-hydroxy-cyclohexyl)-acetamide] |  | 1540 | 54.6 | 8.8
CCC(=O)N[C@H]1CC[C@H](CCN2CCN(c3nccc4occc34)CC2)CC1 [Example 4, N-{trans-4-[2-(4-Furo[3,2-c]pyridin-4-yl-piperazin-1-yl)-ethyl]-cyclohexyl}-propionamide] |  | 780 | 11.8 | 6.5
COCCC(=O)N[C@H]1CC[C@H](CCN2CCN(c3nccc4occc34)CC2)CC1 [Example 5, N-{trans-4-[2-(4-Furo[3,2-c]pyridin-4-yl-piperazin-1-yl)-ethyl]-cyclohexyl}-3-methoxy-propionamide] | 8.1 | 1350 | 24 | 
O=C(CCO)N[C@H]1CC[C@H](CCN2CCN(c3nccc4occc34)CC2)CC1 [Example 6, N-{trans-4-[2-(4-Furo[3,2-c]pyridin-4-yl-piperazin-1-yl)-ethyl]-cyclohexyl}-3-hydroxy-propionamide] | 10.3 | 959 | 19.9 | 
O=C(CO)N[C@H]1CC[C@H](CCN2CCN(c3nccc4occc34)CC2)CC1 [Example 7, N-{trans-4-[2-(4-Furo[3,2-c]pyridin-4-yl-piperazin-1-yl)-ethyl]-cyclohexyl}-2-hydroxy-acetamide] | 5.6 | 1360 | 43 | 
COCC(=O)N[C@H]1CC[C@H](CCN2CCN(c3nccc4occc34)CC2)CC1 [Example 8, N-{trans-4-[2-(4-Furo[3,2-c]pyridin-4-yl-piperazin-1-yl)-ethyl]-cyclohexyl}-2-methoxy-acetamide] | 4.4 | 1160 | 77.2 | 
CO[C@H]1CC[C@H](CC(=O)N[C@H]2CC[C@H](CCN3CCN(c4nccc5occc45)CC3)CC2)CC1 [Example 9, N-{trans-4-[2-(4-Furo[3,2-c]pyridin-4-yl-piperazin-1-yl)-ethyl]-cyclohexyl}-2-(trans-4-methoxy-cyclohexyl)-acetamide] | 5.6 | 1460 | 32.7 | 
O=C(CC1CCOCC1)N[C@H]1CC[C@H](CCN2CCN(c3nccc4occc34)CC2)CC1 [Example 10, N-{trans-4-[2-(4-Furo[3,2-c]pyridin-4-yl-piperazin-1-yl)-ethyl]-cyclohexyl}-2-(tetrahydro-pyran-4-yl)-acetamide] | 6.1 | 683 | 30.3 | 
O=C(N[C@H]1CC[C@H](CCN2CCN(c3nccc4occc34)CC2)CC1)C1CCOCC1 [Example 11, Tetrahydro-pyran-4-carboxylic acid {trans-4-[2-(4-furo[3,2-c]pyridin-4-yl-piperazin-1-yl)-ethyl]-cyclohexyl}-amide] | 2.9 | 515 | 55.7 | 
CCOCC(=O)N[C@H]1CC[C@H](CCN2CCN(c3nccc4occc34)CC2)CC1 [Example 12, 2-Ethoxy-N-{trans-4-[2-(4-furo[3,2-c]pyridin-4-yl-piperazin-1-yl)-ethyl]-cyclohexyl}-acetamide] | 7.4 | 996 | 150 | 
O=C(N[C@H]1CC[C@H](CCN2CCN(c3nccc4occc34)CC2)CC1)C1CC1 [Example 13, Cyclopropanecarboxylic acid {trans-4-[2-(4-furo[3,2-c]pyridin-4-yl-piperazin-1-yl)-ethyl]-cyclohexyl}-amide] | 4.4 | 261 | 21.8 | 
CS(=O)(=O)N[C@H]1CC[C@H](CCN2CCN(c3nccc4occc34)CC2)CC1 [Example 14, N-{trans-4-[2-(4-Furo[3,2-c]pyridin-4-yl-piperazin-1-yl)-ethyl}-cyclohexyl]-methanesulfonamide] | 6.8 | 866 | 34.1 | 
CC(=O)N[C@H]1CC[C@H](CCN2CCN(c3nccc4sccc34)CC2)CC1 [Example 15, N-{trans-4-[2-(4-Thieno[3,2-c]pyridin-4-yl-piperazin-1-yl)-ethyl]-cyclohexyl}-acetamide] |  | 119 | 1.9 | 3.3
CCS(=O)(=O)N[C@H]1CC[C@H](CCN2CCN(c3nccc4occc34)CC2)CC1 [Example 16, Ethanesulfonic acid {trans-4-[2-(4-furo[3,2-c]pyridin-4-yl-piperazin-1-yl)-ethyl]-cyclohexyl}-amide] | 8.5 | 780 | 30.6 | 
CN(C)S(=O)(=O)N[C@H]1CC[C@H](CCN2CCN(c3nccc4occc34)CC2)CC1 [Example 17, N′-(trans-4{[4-(furo[3,2-c]pyridin-4-yl)-piperazin-1-yl]-ethyl}cyclohexyl)-N,N-dimethylsulfamide] | 5.3 | 539 | 33 | 
CCC(=O)N[C@H]1CC[C@H](CCN2CCN(c3nccc4sccc34)CC2)CC1 [Example 18, N-{trans-4-[2-(4-Thieno[3,2-c]pyridin-4-yl-piperazin-1-yl)-ethyl]-cyclohexyl}-propionamide] | 2.6 | 163 | 1.6 | 
COCCC(=O)N[C@H]1CC[C@H](CCN2CCN(c3nccc4sccc34)CC2)CC1 [Example 19, 3-Methoxy-N-{trans-4-[2-(4-thieno[3,2-c]pyridin-4-yl-piperazin-1-yl)-ethyl]-cyclohexyl}-propionamide] |  | 305 | 1.9 | 3.5
CO[C@H]1CC[C@H](CC(=O)N[C@H]2CC[C@H](CCN3CCN(c4nccc5sccc45)CC3)CC2)CC1 [Example 20, 2-(trans-4-Methoxy-cyclohexyl)-N-{trans-4-[2-(4-thieno[3,2-c]pyridin-4-yl-piperazin-1-yl)-ethyl]-cyclohexyl}-acetamide] | 2.5 | 302 | 3 | 
